Data published in US20250009743A1, “METHODS OF TREATING CANCERS USING STING AGONISTS” (Dana-Farber Cancer Institute, Inc., priority 2021, published 2025).

Assays:
BP-sgControl tumors = assay: BP-sgControl tumor growth and survival in FVB mice; assay type: in vivo, mouse; settings: DMXAA 10 mg/kg i.p. weekly; olaparib 50 mg/kg i.p. q.d.; FIG. 11G
Protocol: Primary mammary tumor cells for orthotopic injection were resuspended in serum-free DMEM containing 40% matrigel (Corning). 5×10^5 tumor cells in a total volume of 100 μL were injected orthotopically into the thoracic mammary fat pads of 8-week-old female FVB/NJ mice (The Jackson Laboratory). Tumor growth was examined by measuring the greatest longitudinal diameter (length) and the greatest transverse diameter (width) with digital calipers, and tumor volume was calculated by use of the modified ellipsoid formula (0.52×length×width2). Tumors were measured 2-3 times a week. All tumor measurements within single cohorts were performed by the same researcher. Tumor-bearing mice were randomized prior to start of treatment. Drug treatments were started when mean tumor volumes approximated 50-100 mm3. Mice were euthanized by CO2 inhalation when tumor volumes met humane endpoints described in the IACUC (20 mm diameter) protocols or upon severe health deterioration.
Olaparib (MedChem, #HY-10162) was prepared by diluting 100 mg/l mL stocks in DMSO with 10% (2-Hydroxypropyl)-β-cyclodextrin (HPCD, MedChem, #101103) in PBS and administered immediately after drug preparation by intraperitoneal (i.p.) injection at a dose of 50 mg/kg body weight daily. DMXAA (Sigma, #D5817) was reconstituted at 10 mg/mL in 7.5% NaHCO3(Gibco). […]

[1] = system: TAMs co-cultured with CD8^+ T cells; assay: Co-culture of TAMs with CD8^+ T cells; assay type: cell-based, mouse; settings: TAMs pre-treated with MSA-2 33 μM, washed off; FIG. 34A
Protocol: Tumor associated macrophages (TAMs) were isolated from ETP tumors using a mouse CD11b^+ myeloid cell isolation kit (StemCell, #18970) and seeded in 48-well plate at the density of 1×10^5 cells/well, cultured in DMEM growth medium (DMEM+10% FBS+100 μg/mL penicillin-streptomycin) supplemented with 10 ng/ml mouse M-CSF (BioLegend, #576404) and allowed to adhere overnight. TAMs were then treated with or without MSA-2 at the concentration of 33 μM in the median mentioned above for 2 days. MSA-2 was washed off before coculturing TAM with CD8^+ T cells. Mouse CD8^+ T cells were isolated from spleens of FVB/NJ mice using a mouse CD8+ T cell isolation kit (StemCell, #19853) and seeded in the same 48-well plate at the density of 1×10^5 cells/well, cultured alone or cocultured with TAMs in RPMI 1640 supplemented with 10% FBS, 10 ng/ml mouse M-CSF (BioLegend, #576404), 0.055 mM 2-mercaptoethanol, 2 ng/ml IL-2 (Peprotech), 2.5 ng/ml IL-7 (Peprotech) and 50 ng/ml IL-15 (Peprotech) for 2 days. After that, T cells were collected for flow cytometry analysis.

PBM-R tumor cells = assay: Measurement of IC50 value in PBM-R tumor cells (CellTiter-Glo); assay type: cell-based, mouse
Protocol: Tumor cells were seeded in 96-well plates at a density of 2000-3000/well and allowed to adhere overnight. Cells were then exposed to appropriate concentrations of therapeutic agents (or vehicle control) with continuous exposure for 72 h. Growth inhibition was measured by CellTiter-Glo® 2.0 Cell Viability Assay from Promega according to manufactory's introduction. IC50 values were calculated using non-linear regression model (logarithmic inhibitor vs. normalized response-variable slope) in Graphpad Prism 9.

Cc1ccc2c(=O)c3cccc(CC(=O)O)c3oc2c1C [DMXAA, 5,6-dimethyl-xanthenone-4-acetic acid]
BP-sgControl tumor growth (BP-sgControl tumors): no significant impact

COc1cc2cc(C(=O)CCC(=O)O)sc2cc1OC [MSA-2]
TAM-mediated suppression of CD8^+ T cells (cytokine production) [1]: reversed TAM-mediated suppression of CD8^+ T cells

O=C(c1cc(Cc2n[nH]c(=O)c3ccccc23)ccc1F)N1CCN(C(=O)C2CC2)CC1 [olaparib]
IC50 values of 11 out of 12 PBM-R tumor lines (PBM-R tumor cells; 11 out of 12 PBM-R lines sensitive in vitro, FIG. 15C): comparable to PBM tumor cells
IC50 (PBM-R tumor cells; Mus musculus, PBM-R3 tumor cells, 72 h, FIG. 15C): 4.19 µM
IC50 fold (PBM-R tumor cells; PBM-R3 IC50 relative to 0.56 μM): 7.48 folds
